# Publication PMC12136031 (Science Advances, 2025)
# pEC50, pIC50: −log10 of the molar value. Like-named read-outs stand apart in the source and are kept apart here.
# Experiments:
# SERT = target: T1, SERT (Homo sapiens, UniProt P31645); assay: Safety47 Transporter SERT; type: cell-based; settings: Blocker; for Emax: read-out: Max Response; for pIC50: read-out: RC50 (IC50)
# T1 construct: purchased Eurofins Panlab Safety47 Safety Scan
# OPRM1 = target: T2, OPRM1 (Homo sapiens, UniProt P35372); assay: Safety47 cAMP OPRM1; type: cell-based; settings: for Emax: OPRM1, cAMP, read-out: Max Response; for pEC50: read-out: RC50 (EC50); for pIC50: read-out: RC50 (IC50)
# T2 construct: purchased Eurofins Panlab (Safety47 Safety Scan, contract panel)
# TFEB ubiquitination = assay: TFEB cellular ubiquitination assay; type: cell-based, human; settings: TFEB-EGFP immunoprecipitated
# INSR = target: T3, INSR (Homo sapiens, UniProt P06213); assay: Safety47 Kinase Binding INSR; settings: Kinases, Inhibitor; for Emax: read-out: Max Response; for pIC50: read-out: RC50 (IC50)
# T3 construct: purchased Eurofins Panlab (Safety47 Safety Scan, contract panel)
# MAOA = target: T4, MAOA (Homo sapiens, UniProt P21397); assay: Safety47 Enzymatic MAOA; type: biochemical; settings: Inhibitor; for Emax: read-out: Max Response; for pIC50: read-out: RC50 (IC50)
# T4 construct: purchased Eurofins Panlab (Safety47 Safety Scan, contract panel)
# T4 sequence (P21397 1-527): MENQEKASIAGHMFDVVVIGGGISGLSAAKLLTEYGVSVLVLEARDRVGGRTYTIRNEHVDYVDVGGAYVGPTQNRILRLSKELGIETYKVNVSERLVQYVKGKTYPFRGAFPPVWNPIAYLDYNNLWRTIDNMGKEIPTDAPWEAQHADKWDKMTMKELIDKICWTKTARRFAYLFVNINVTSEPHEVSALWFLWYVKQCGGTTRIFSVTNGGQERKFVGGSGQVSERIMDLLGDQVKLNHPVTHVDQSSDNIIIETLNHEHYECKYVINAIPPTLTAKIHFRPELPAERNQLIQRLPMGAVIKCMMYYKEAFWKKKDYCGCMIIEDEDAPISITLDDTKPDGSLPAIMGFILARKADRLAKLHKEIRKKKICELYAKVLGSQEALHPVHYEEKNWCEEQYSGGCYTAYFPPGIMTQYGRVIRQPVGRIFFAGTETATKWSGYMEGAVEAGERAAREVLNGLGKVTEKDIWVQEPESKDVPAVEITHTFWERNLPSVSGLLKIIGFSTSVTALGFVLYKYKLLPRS
# AChE = target: T5, AChE (Homo sapiens, UniProt P22303); assay: Safety47 Enzymatic AChE; type: biochemical; settings: Inhibitor; for Emax: read-out: Max Response; for pIC50: read-out: RC50 (IC50)
# T5 construct: purchased Eurofins Panlab (Safety47 Safety Scan, contract panel)
# nAChR(a4/b2) = target: T6, nAChR(a4/b2) (Homo sapiens, UniProt P17787+P43681); assay: Safety47 Ion Channel nAChR(a4/b2); type: cell-based; settings: for Emax: read-out: Max Response; for pIC50: read-out: RC50 (IC50); for pEC50: read-out: RC50 (EC50)
# T6 construct: purchased Eurofins Panlab (Safety47 Safety Scan, contract panel)
# PDE3A = target: T7, PDE3A (Homo sapiens, UniProt Q14432); assay: Safety47 Enzymatic PDE3A; type: biochemical; settings: Inhibitor; for Emax: read-out: Max Response; for pIC50: read-out: RC50 (IC50)
# T7 construct: purchased Eurofins Panlab (Safety47 Safety Scan, contract panel)
# ADORA2A = target: T8, ADORA2A (Homo sapiens, UniProt P29274); assay: Safety47 Calcium Flux ADORA2A; type: cell-based; settings: for Emax: read-out: Max Response; for pEC50: read-out: RC50 (EC50); for pIC50: read-out: RC50 (IC50)
# T8 construct: purchased Eurofins Panlab Safety47 Safety Scan
# NMDAR (1A/2B) = target: T9, NMDAR (1A/2B) (Homo sapiens, UniProt Q05586+Q13224); assay: Safety47 Ion Channel NMDAR (1A/2B); type: cell-based; settings: for Emax: read-out: Max Response; for pIC50: read-out: RC50 (IC50); for pEC50: read-out: RC50 (EC50)
# T9 construct: purchased Eurofins Panlab (Safety47 Safety Scan, contract panel)
# HTR1A = target: T10, HTR1A (Homo sapiens, UniProt P08908); assay: Safety47 cAMP HTR1A; type: cell-based; settings: for Emax: read-out: Max Response; for pEC50: read-out: RC50 (EC50); for pIC50: read-out: RC50 (IC50)
# T10 construct: purchased Eurofins Panlab Safety47 Safety Scan
# T10 sequence (P08908 1-422): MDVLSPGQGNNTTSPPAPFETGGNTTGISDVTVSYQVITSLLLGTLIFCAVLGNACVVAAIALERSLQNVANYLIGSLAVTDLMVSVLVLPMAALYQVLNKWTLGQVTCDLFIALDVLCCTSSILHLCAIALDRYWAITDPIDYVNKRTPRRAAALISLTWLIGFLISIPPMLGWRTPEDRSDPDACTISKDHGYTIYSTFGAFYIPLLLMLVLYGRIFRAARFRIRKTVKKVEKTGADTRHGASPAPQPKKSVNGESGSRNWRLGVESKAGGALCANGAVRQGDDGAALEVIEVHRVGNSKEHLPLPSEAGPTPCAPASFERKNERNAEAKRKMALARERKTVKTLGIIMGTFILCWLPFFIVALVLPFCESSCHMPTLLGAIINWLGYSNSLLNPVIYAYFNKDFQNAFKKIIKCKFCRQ
# COX2 = target: T11, COX2 (Homo sapiens, UniProt P35354); assay: Safety47 Enzymatic COX2; type: biochemical; settings: Inhibitor; for Emax: read-out: Max Response; for pIC50: read-out: RC50 (IC50)
# T11 construct: purchased Eurofins Panlab (Safety47 Safety Scan, contract panel)
# T11 sequence (P35354 18-604): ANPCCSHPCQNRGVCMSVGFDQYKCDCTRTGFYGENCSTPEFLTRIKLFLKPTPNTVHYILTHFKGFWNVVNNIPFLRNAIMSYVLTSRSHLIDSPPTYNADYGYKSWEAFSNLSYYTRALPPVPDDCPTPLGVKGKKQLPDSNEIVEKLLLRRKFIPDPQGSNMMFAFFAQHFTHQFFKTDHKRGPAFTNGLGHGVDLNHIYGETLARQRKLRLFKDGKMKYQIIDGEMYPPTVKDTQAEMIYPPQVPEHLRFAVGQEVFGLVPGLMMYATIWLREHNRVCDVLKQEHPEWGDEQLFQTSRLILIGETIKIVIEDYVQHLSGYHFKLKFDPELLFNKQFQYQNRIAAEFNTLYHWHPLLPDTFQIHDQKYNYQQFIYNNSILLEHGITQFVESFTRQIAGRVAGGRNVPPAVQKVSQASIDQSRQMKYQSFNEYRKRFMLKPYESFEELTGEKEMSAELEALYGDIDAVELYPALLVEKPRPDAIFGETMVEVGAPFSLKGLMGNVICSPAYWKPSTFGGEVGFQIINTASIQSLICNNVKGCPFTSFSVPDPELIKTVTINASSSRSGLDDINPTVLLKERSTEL
# OPRD1 = target: T12, OPRD1 (Homo sapiens, UniProt P41143); assay: Safety47 cAMP OPRD1; type: cell-based; settings: for Emax: read-out: Max Response; for pEC50: read-out: RC50 (EC50); for pIC50: read-out: RC50 (IC50)
# T12 construct: purchased Eurofins Panlab (Safety47 Safety Scan, contract panel)
# [1] = target: DCAF7 / phosphorylated TFEB peptide (Ser138, Ser142) (Homo sapiens, UniProt P61962); assay: TFEB peptide binding assay with recombinant DCAF7; settings: DCAF7 preincubated with compound
# DAT = target: T13, DAT (Homo sapiens, UniProt Q01959); assay: Safety47 Transporter DAT; type: cell-based; settings: Blocker; for Emax: read-out: Max Response; for pIC50: read-out: RC50 (IC50)
# T13 construct: purchased Eurofins Panlab (Safety47 Safety Scan, contract panel)
# T13 sequence (Q01959 whole entry, species assumed): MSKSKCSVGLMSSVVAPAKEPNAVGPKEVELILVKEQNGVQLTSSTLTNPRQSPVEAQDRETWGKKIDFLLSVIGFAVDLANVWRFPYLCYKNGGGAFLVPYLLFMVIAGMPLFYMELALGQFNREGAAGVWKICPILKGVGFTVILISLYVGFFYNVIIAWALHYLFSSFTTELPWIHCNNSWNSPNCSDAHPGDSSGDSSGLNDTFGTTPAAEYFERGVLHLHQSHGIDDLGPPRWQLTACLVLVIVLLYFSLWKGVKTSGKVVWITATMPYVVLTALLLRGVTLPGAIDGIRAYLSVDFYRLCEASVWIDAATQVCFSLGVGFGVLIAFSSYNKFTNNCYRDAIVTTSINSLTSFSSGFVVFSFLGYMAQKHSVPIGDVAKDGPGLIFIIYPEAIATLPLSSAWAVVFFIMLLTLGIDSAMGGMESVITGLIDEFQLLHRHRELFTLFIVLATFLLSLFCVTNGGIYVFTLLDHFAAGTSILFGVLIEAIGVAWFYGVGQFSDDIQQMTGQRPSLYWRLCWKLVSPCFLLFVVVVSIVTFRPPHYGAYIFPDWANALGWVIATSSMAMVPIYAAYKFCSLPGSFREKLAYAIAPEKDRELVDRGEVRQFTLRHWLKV
# T12 sequence (P41143 whole entry, species assumed): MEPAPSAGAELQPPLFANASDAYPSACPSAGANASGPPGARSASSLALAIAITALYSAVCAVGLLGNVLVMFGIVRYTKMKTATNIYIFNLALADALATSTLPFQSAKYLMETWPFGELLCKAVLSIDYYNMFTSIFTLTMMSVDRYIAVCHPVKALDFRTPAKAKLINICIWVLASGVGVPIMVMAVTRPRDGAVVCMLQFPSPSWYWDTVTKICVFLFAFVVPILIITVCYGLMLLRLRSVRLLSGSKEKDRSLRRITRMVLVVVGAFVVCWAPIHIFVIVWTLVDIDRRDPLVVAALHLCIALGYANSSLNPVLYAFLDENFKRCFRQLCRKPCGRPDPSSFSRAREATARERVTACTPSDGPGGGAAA
# T8 sequence (P29274 whole entry): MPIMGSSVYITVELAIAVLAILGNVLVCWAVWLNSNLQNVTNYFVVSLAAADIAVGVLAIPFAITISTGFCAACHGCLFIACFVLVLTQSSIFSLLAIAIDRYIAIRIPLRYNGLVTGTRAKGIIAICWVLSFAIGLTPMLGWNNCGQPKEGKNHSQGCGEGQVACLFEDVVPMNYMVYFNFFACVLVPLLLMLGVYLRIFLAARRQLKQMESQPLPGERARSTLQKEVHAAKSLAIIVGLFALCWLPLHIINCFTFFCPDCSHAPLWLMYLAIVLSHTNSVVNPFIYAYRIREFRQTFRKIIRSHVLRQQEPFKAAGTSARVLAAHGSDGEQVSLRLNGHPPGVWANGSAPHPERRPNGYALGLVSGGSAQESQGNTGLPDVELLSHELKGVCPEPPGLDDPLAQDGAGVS
# T9 sequence (Q13224 27-1484, other chains not shown): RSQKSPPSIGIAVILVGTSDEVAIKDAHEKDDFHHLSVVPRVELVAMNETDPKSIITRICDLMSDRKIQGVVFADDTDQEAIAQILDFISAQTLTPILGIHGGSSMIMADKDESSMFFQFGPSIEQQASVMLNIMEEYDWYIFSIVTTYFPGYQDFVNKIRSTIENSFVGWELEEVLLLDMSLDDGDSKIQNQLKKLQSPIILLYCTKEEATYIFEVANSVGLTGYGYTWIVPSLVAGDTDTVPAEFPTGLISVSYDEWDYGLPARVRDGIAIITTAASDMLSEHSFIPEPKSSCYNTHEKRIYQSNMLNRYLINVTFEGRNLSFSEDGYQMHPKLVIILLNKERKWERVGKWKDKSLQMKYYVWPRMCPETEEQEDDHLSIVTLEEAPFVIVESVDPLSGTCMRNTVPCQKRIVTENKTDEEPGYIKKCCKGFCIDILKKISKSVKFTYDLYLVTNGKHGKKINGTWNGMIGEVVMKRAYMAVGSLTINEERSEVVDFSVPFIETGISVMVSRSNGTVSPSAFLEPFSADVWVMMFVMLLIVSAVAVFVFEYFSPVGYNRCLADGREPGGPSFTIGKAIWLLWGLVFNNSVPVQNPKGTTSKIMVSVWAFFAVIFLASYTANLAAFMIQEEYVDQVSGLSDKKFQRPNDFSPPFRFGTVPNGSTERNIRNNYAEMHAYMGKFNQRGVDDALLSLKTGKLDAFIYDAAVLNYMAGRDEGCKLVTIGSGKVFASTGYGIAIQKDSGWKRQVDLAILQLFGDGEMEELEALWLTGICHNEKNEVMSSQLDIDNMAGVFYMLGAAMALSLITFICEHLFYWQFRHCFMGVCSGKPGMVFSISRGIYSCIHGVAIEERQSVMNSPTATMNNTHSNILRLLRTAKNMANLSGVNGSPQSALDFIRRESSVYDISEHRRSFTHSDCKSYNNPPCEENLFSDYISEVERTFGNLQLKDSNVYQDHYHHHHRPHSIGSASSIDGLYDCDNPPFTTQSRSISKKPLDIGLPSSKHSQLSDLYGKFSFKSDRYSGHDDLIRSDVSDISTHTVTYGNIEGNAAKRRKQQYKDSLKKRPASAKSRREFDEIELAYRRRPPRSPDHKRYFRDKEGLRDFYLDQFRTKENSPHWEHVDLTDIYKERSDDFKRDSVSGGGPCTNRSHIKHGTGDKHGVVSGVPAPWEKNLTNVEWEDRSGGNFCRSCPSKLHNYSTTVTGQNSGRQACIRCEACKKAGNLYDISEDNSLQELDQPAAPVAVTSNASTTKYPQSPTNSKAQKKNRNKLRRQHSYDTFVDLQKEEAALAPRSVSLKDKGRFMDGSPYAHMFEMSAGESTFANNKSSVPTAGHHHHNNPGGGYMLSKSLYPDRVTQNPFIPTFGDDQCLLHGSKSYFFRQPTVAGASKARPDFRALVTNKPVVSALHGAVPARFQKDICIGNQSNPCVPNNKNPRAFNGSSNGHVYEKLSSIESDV
# T7 sequence (Q14432 whole entry, species assumed): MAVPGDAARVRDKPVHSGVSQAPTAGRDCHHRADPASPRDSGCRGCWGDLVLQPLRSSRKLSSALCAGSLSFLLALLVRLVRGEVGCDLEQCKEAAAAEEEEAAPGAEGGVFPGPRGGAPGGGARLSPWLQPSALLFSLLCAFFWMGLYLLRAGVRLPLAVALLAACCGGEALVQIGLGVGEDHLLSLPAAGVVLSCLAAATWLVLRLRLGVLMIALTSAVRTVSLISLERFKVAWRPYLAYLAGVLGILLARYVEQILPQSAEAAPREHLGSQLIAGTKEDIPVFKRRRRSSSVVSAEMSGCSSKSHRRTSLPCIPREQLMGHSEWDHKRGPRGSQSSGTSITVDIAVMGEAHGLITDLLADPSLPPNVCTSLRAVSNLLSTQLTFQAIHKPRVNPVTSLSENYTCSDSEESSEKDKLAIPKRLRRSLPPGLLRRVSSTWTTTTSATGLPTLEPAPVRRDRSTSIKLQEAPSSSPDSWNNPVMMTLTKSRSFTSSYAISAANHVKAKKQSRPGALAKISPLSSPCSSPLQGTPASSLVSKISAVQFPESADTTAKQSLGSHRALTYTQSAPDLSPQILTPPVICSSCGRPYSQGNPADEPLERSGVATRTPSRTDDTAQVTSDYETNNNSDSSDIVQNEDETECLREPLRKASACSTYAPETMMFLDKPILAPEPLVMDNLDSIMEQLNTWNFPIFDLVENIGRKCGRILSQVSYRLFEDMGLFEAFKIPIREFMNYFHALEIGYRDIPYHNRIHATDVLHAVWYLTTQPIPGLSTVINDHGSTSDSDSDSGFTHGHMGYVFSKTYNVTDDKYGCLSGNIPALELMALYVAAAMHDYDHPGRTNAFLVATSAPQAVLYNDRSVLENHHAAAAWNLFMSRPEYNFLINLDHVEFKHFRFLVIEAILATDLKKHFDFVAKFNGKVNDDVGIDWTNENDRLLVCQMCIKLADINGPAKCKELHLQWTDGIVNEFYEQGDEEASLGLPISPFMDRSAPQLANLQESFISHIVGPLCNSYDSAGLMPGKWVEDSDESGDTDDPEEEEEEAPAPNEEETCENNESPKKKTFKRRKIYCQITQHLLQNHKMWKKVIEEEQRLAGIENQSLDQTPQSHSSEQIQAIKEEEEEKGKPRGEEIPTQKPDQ
# T2 sequence (P35372 whole entry, species assumed): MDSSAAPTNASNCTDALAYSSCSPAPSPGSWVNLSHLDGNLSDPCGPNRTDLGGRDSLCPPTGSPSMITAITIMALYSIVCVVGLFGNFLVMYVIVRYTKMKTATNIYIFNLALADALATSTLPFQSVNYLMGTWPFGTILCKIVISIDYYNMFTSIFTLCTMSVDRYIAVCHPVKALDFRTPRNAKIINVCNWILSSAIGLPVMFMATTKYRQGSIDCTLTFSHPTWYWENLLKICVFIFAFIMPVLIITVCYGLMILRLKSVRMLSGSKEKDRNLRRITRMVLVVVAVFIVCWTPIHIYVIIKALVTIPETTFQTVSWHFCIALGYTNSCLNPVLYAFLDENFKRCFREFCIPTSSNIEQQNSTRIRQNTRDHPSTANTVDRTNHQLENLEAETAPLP
# T5 sequence (P22303 32-614): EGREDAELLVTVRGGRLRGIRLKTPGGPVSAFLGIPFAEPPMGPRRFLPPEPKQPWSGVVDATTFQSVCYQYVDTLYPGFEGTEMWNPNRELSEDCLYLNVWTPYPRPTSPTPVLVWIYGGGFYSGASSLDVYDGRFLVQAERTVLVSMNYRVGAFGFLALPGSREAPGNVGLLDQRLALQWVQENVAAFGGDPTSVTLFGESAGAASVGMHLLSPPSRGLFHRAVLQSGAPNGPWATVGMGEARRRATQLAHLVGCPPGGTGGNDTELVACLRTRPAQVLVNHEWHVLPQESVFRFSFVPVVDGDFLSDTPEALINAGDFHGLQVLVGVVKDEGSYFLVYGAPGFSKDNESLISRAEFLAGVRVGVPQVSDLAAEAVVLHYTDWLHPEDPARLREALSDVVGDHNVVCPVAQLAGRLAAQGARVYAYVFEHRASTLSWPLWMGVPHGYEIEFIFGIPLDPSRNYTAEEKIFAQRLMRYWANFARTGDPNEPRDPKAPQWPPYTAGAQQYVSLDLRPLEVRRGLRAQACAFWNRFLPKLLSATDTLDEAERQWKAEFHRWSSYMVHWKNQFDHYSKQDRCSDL
smiles,measurement,setting,value
"Cl.c1ccc2c(Nc3ccc4[nH]ccc4c3)nc(-c3ccncc3)nc2c1 [BC18630, N-1H-indol-5-yl-2-pyridin-4-ylquinazolin-4-amine hydrochloride]",Emax,SERT,0%
same,pIC50,SERT,< 5.00
same,Emax,OPRM1; Agonist,8.65%
same,Emax,OPRM1; Antagonist,49.4%
same,pEC50,"OPRM1; cAMP, Agonist",< 5.00
same,pIC50,"OPRM1; cAMP, Antagonist",< 5.00
same,TFEB ubiquitination,TFEB ubiquitination,decreased
same,Emax,INSR,15.6%
same,pIC50,INSR,< 5.00
same,Emax,MAOA,57%
same,pIC50,MAOA,< 5.00
same,Emax,AChE,21.2%
same,pIC50,AChE,< 5.00
same,Emax,nAChR(a4/b2); Blocker,12.4%
same,pIC50,nAChR(a4/b2); Blocker,< 5.00
same,Emax,nAChR(a4/b2); Opener,0%
same,pEC50,nAChR(a4/b2); Opener,< 5.00
same,Emax,PDE3A,8.9%
same,pIC50,PDE3A,< 5.00
same,Emax,ADORA2A; Agonist,3.09%
same,pEC50,ADORA2A; Agonist,< 5.00
same,Emax,ADORA2A; Antagonist,29.8%
same,pIC50,ADORA2A; Antagonist,< 5.00
same,Emax,NMDAR (1A/2B); Blocker,0%
same,pIC50,NMDAR (1A/2B); Blocker,< 5.00
same,Emax,NMDAR (1A/2B); Opener,0%
same,pEC50,NMDAR (1A/2B); Opener,< 5.00
same,Emax,HTR1A; Agonist,9.36%
same,pEC50,HTR1A; Agonist,< 5.00
same,Emax,HTR1A; Antagonist,5.7%
same,pIC50,HTR1A; Antagonist,< 5.00
same,Emax,COX2,8.53%
same,pIC50,COX2,< 5.00
same,Emax,OPRD1; Agonist,42.6%
same,pEC50,OPRD1; Agonist,< 5.00
same,Emax,OPRD1; Antagonist,9.94%
same,pIC50,OPRD1; Antagonist,< 5.00
same,In vitro peptide binding,[1],reduced
same,Emax,DAT,37%
same,pIC50,DAT,< 5.00
"Cl.Fc1cc(Nc2nc(-c3ccncc3)nc3ncccc23)cc2cc[nH]c12 [BC18813, N-(7-fluoro-1H-indol-5-yl)-2-pyridin-4-ylpyrido[2,3-d]pyrimidin-4-amine hydrochloride]",Emax,SERT,0%
same,pIC50,SERT,< 5.00
same,Emax,OPRM1; Agonist,24.4%
same,Emax,OPRM1; Antagonist,53.3%
same,pEC50,"OPRM1; cAMP, Agonist",< 5.00
same,Curve Bottom,"OPRM1; cAMP, Antagonist",-9.93
same,Curve Top,"OPRM1; cAMP, Antagonist",100
same,Hill,"OPRM1; cAMP, Antagonist",1.01
same,pIC50,"OPRM1; cAMP, Antagonist",5.13
same,TFEB ubiquitination,TFEB ubiquitination,decreased
same,Emax,INSR,0%
same,pIC50,INSR,< 5.00
same,Emax,MAOA,22.2%
same,pIC50,MAOA,< 5.00
same,Emax,AChE,6.26%
same,pIC50,AChE,< 5.00
same,Emax,nAChR(a4/b2); Blocker,0%
same,pIC50,nAChR(a4/b2); Blocker,< 5.00
same,Emax,nAChR(a4/b2); Opener,0%
same,pEC50,nAChR(a4/b2); Opener,< 5.00
same,Emax,PDE3A,28.2%
same,pIC50,PDE3A,< 5.00
same,Emax,ADORA2A; Agonist,1.05%
same,pEC50,ADORA2A; Agonist,< 5.00
same,Emax,ADORA2A; Antagonist,37.7%
same,pIC50,ADORA2A; Antagonist,< 5.00
same,Emax,NMDAR (1A/2B); Blocker,13.8%
same,pIC50,NMDAR (1A/2B); Blocker,< 5.00
same,Emax,NMDAR (1A/2B); Opener,0%
same,pEC50,NMDAR (1A/2B); Opener,< 5.00
same,Emax,HTR1A; Agonist,13%
same,pEC50,HTR1A; Agonist,< 5.00
same,Emax,HTR1A; Antagonist,0%
same,pIC50,HTR1A; Antagonist,< 5.00
same,Emax,COX2,17.9%
same,pIC50,COX2,< 5.00
same,Emax,OPRD1; Agonist,54.8%
same,pEC50,OPRD1; Agonist,< 5.00
same,Emax,OPRD1; Antagonist,0%
same,pIC50,OPRD1; Antagonist,< 5.00
same,In vitro peptide binding,[1],reduced
same,Emax,DAT,16.8%
same,pIC50,DAT,< 5.00
